How the values were obtained:
Experiment in all cases: direct fluorescence titration of TBG into fluorophore
Format in all cases: binding
[1] = target: T1, TBG (wild-type, native, intact reactive loop) (Homo sapiens, UniProt P05543)
T1 sequence (P05543 21-415): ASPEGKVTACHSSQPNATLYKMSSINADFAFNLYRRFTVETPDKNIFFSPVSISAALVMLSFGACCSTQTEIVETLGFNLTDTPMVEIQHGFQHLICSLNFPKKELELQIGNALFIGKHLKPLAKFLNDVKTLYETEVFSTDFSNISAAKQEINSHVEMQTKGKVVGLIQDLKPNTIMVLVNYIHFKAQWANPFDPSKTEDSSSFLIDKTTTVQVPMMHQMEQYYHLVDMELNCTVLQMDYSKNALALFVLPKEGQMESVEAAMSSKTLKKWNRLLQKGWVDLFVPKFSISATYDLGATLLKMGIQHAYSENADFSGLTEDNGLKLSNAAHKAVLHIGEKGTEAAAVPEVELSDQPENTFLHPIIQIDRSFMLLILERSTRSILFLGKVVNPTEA

[2] = target: T2, TBG (wild-type, native, intact reactive loop) (Homo sapiens, UniProt P05543, DEL124-126/K123A)
T2 sequence (P05543 with tags, fused parts or gaps K123A/DEL124-126): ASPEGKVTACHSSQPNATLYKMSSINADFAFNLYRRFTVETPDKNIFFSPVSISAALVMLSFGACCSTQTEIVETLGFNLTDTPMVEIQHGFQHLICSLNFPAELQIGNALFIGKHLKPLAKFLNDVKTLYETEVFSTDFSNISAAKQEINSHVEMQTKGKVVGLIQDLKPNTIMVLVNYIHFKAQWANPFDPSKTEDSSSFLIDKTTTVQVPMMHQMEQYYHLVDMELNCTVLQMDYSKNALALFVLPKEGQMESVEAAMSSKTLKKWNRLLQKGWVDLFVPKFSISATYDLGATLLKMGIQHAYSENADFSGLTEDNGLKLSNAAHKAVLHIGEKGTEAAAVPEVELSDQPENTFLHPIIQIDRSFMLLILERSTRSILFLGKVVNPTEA

[3] = target: T3, cleaved TBG (wild-type, reactive loop cleaved) (Homo sapiens, UniProt P05543, DEL124-126/K123A)
T3 sequence (P05543 with tags, fused parts or gaps K123A/DEL124-126): T2 sequence (P05543 with tags, fused parts or gaps K123A/DEL124-126)

Kd [1] | Kd [2] | Kd [3] | SMILES
< 0.1 nM |  |  | O=C(N[C@@H](Cc1cc(I)c(Oc2cc(I)c(O)c(I)c2)c(I)c1)C(=O)O)c1ccc2c(c1)C(=O)OC21c2ccc(O)cc2Oc2cc(O)ccc21 [T4–5-CF]
 | 24.9 ± 1.8 nM | 50.7 ± 3.6 nM | O=C(N[C@@H](Cc1cc(I)c(Oc2cc(I)c(O)c(I)c2)c(I)c1)C(=O)O)c1ccc2c(c1)C1(OC2=O)c2ccc(O)cc2Oc2cc(O)ccc21 [T4–6-CF]

Source: paper PMC3091225 (The Journal of Biological Chemistry, 2011)
